Laboratory results as given in patent US11932673B2, “Sodium channel inhibitors” (priority 2017, dated 2024).
“And” between values parts separate entries of the source, which are not always exact repeats. Equal entries are not always repeated.

Experiments:
trypsin = test: Phage TRF binding assay of KnotBody phage on immobilised biotinylated trypsin; conditions: EETI-II directly fused to the N-terminus of gene III; TRF
Procedure: Phage display technology facilitates isolation of binders to any given target from large combinatorial repertoires based on proteins and peptides that can be presented on the surface of filamentous phage^105. In order to isolate functional knottin-antibody fusions from the KnotBody libraries multiple rounds of phage display selections on trypsin (cognate antigen for the EETI-II donor) were carried out. Phage particles were prepared by rescuing KnotBody libraries using trypsin cleavable helper phage^102,106 Two rounds of phage display selections were performed on 10 μg/ml biotinylated trypsin immobilised on Streptavidin (for Round-1) or Neutravidin (for round-2) coated Maxisorp™ immunotubes (Thermo Scientific, Cat No. 444202). In both rounds of selection, phage libraries were pre-incubated with streptavidin coated paramagnetic beads (Thermo Fisher Scientific, Cat. No. 11205D). […] Polyclonal phage preparations from round-2 selection outputs were analysed for trypsin binding using a time resolved fluorescence (TRF) binding assay. In this assay, polyclonal phage binding to biotinylated trypsin immobilised on neutravidin (Thermo Fisher Scientific, Cat. No 31000) coated Maxisorp™ plates (Thermo Scientific, Cat. No. 437111) was detected using a mouse anti-M13 antibody (GE Healthcare, Cat. No. 27-9420-01) followed by europium conjugated anti-mouse antibody (Perkin Elmer, Cat. No. AD0124). […]

huASIC1a = target: T1, huASIC1a (Homo sapiens, UniProt P78348); test: QPatch automated whole-cell patch-clamp on HEK293 cells stably expressing huASIC1a; assay type: cell-based; conditions: full blocking 300 nM PcTx1 (positive control) perfused at end of each KnotBody or control incubation, then pH 6.0; one value per preceding sample
T1 sequence (P78348 whole entry, looked up): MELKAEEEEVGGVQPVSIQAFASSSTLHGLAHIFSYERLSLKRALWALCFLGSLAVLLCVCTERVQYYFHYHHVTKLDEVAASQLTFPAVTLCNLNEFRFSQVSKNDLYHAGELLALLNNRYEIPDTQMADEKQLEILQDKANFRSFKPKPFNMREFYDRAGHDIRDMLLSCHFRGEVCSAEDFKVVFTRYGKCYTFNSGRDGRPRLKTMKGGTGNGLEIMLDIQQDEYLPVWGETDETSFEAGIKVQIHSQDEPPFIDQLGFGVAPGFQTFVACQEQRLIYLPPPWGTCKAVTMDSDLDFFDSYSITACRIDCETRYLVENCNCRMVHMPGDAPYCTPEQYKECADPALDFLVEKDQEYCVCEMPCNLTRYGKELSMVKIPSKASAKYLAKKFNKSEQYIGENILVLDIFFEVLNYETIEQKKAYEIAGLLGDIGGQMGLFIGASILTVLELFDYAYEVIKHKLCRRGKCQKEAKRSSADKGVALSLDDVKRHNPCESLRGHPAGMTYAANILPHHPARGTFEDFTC
Procedure: Knottin Kv 1.3 and ASIC1a blockers expressed in the KnotBody format (see examples 6 and 7) were tested for their ability to inhibit the function of the ion channel targets. The effect of these KnotBodies on cells expressing the human Kv 1.3 (huKv1.3) or human ASIC1a channels was assessed using QPatch automated whole-cell patch-clamp electrophysiology (Sophion).
To functionally assess the ASIC1a KnotBodies, HEK293 cells stably expressing huASIC1a (Sophion) were analysed using a QPatch electrophysiology assay in the presence or absence of the KnotBody fusions (using KB_A12 as a recipient and replacing the original EETI-II donor as shown in Table 8). The “parental” KB_A12 with the EETI-II donor was used as a negative control. Internal and external physiological solutions were freshly prepared prior to the assay. […]
At the end of each KnotBody incubation and subsequent ASIC1a current activation, a full blocking concentration (300 nM) of the ASIC1a knottin inhibitor PcTx1 (positive control) was perfused onto the cell recording and a final activating pH 6.0 external solution was applied. The percentage remaining signal between activating pH 6.0 baseline (i.e. pre-KnotBody) and post-KnotBody incubation was determined.

Substance	binding to trypsin of phage (trypsin)	% current remaining PcTx1 (300 nM) (huASIC1a)
EETI-II [reference compound]	no detectable binding to trypsin	–
PcTx1: ASIC1a knottin inhibitor, positive control at 300 nM; SEQ ID NO: 20	–	2% and 1.9% and 2.7% and 3.8% and 3.6%
